# Measurements published in patent US20210145830A1, “MATERIALS AND METHODS FOR TREATING CANCER” (Mayo Foundation for Medical Education and Research, priority 2018, published 2021).
# Experiments:
# [1] = system: CART19; experiment: T cell degranulation and intracellular cytokine assays; type: cell-based
# Description: (§1) FIG. 22A-C. In vitro experiment for the combination of CART19 and TP0903. A. CART19 were cocultured at different effector-to-target ratio (E:T) with luciferase-positive JeKo-1. At 48 hours, cell killing was assessed by luminescence. […] The means and SEM are shown (**, p<0.005, *, p<0.05, one-way ANOVA analysis). n.s., not statistically significant. B. CART19 degranulation assay and cytokine production in the presence of TP0903. CART19 were cocultured with JeKo-1 for 4 hours in the presence of TP0903 doses of TP0903 (10-65 nM). […] C. Th2/Th1 T cell subtype analysis during CART19 expansion in the presence pf TP0903. CART19 cells were stimulated with lethally irradiated (120 Gy) JeKo-1 cell lines in the presence of increasing doses of TP0903 (10-30 nM). At the day 3, Th1 and Th2 cells were defined using CD4, CCR6, CCR4 and CXCR3 expression. […] The means and SEM are shown (*, p<0.05, one-way ANOVA analysis). n.s., not statistically significant.
# Briefly, T cells were incubated with target cells at a 1:5 ratio. After staining for CAR expression, antibodies against CD107a, CD28, CD49d and monensin were added at the time of incubation. After 4 hours, cells were harvested and stained for CD3, CD4, and Live Dead staining (Invitrogen). Cells were fixed and permeabilized (FIX & PERM Cell Fixation & Cell Permeabilization Kit, Life Technologies) and intracellular cytokine staining was then performed as indicated in the specific experiments.
# T cells were incubated with target cells at a 1:5 ratio (experiments were done using JEKO cells as well as primary B cells). Antibodies against CD107a, CD28, CD49d and monensin were added at the time of incubation.
# After 4 hours, cells were harvested and stained for CD3, CD4, and Live Dead staining (Invitrogen). Cells were fixed and permeabilized (FIX & PERM Cell Fixation & Cell Permeabilization Kit, Life Technologies), and intracellular cytokine staining was then performed. […] The number of CD4 and CD8 cells positively stained for cluster of differentiation 107a (CD107a) or granulocyte-macrophage colony-stimulating factor (GM-CSF) in degranulation assays were shown in FIG. 5. The number of CD4 cells positively stained for interleukin-2 (IL-2) or interleukin-4 (IL-4) in degranulation assays were shown in FIG. 6.
# [2] = system: JeKo; experiment: MCL (JeKo) xenograft in NSG mice with re-challenge; type: in vivo
# Description: FIGS. 19A-F. A. Inhibitory receptors expression in naïve T cells after TCR activation with CD3 stimulation in the increasing dose of TP0903. Naïve T cells were incubated with anti CD3/CD28 beads at a 1 to 3 ratio in the presence of TP0903. At day 3, T cells were stained with PD-1, TIM-3, LAG-3, and ICOS. […] Teff cells were isolated by negative selection using Human T Cell Isolation Kit. Tregs were isolated by negative selection using the human CD4^+CD127^lowCD25^+ Treg isolation kit. Teff and Treg were stimulated with anti CD3/CD28 beads and 400 U/ml of IL-2. At day 5, total T cells were evaluated via CountBright quantification. C. CART19 cytokine assay in the presence TP0903. UTDs or CART19 were incubated with Jeko in the presence of TP-0903 at a 1 to 1 ratio. Supernatant was harvested and analyzed by 32-plex Luminex array after 3 days. D. Inhibitory receptors expression in CART19 cells in the presence TP0903. UTDs or CART19 were incubated with Jeko at a 1 to 1 E/T ratio in the presence of TP0903. At day 5, T cells were stained with PD-1 (left), LAG-3 (right), and TIM-3. E. CART19 cytotoxicity in the presence TP0903: CART19 or UTDs were co-cultured at different effector-to-target ratios (E:T) with luciferase-positive Jeko in the presence of increasing doses of TP0903. Cell killing was assessed by luminescence at 24 hours. F. TP0903 enhanced CART cell persistence in vivo. NSG mice were injected with 1.0×10^6 luciferase-positive JeKo on day −7. At day 0, mice were randomized according to tumor burden to receive vehicle, TP0903 20 mg/kg/day, […] CART19, or TP0903 20 mg/kg/day+0.5×10^6 CART19. At day 21, mice were re-challenged with JeKo.
# FIG. 25A-E. Impact of the combinatory therapy in vivo. A. Schema for in vivo experiment. B and C. […] D. Reduction of MCP-1, which is known as CRS related cytokine in the presence of TP0903. E. Expansion of circulating CART19 after re-challenging Luciferase positive JeKo-1.
# NOD-SCID-γ chain−/− (NSG) originally obtained from Jackson Laboratories were maintained in our laboratory under an IACUC approved breeding protocol. Schemas of the utilized xenograft models are discussed in detail in the relevant figures and the Results section. Cells were injected in 200 μL of phosphate-buffered saline at the indicated concentration into the tail veins of mice. Bioluminescent imaging was performed using a Xenogen IVIS-200 Spectrum camera. Images were acquired and analyzed using Living Image version 4.4 (Caliper LifeSciences, Inc., PerkinElmer).
# To investigate the effect of AXL RTK inhibition of CART cells with TP0903 in vivo, MCL xenografts were established through the injection of 1.0×10^6 of JeKo into NSG mice. A week after the injection of JeKo, mice were treated with either vehicle alone, TP0903 (20 mg/kg/day) alone, 0.5×10^6 of CART19 alone, or TP0903 (20 mg/kg/day)+0.5×10^6 of CART19. Three weeks after the treatment, mice were rechallenged with 1.0×10^6 of JeKo.
# [3] = system: CART19 cells; experiment: Th2/Th1 T cell subtype analysis during CART19 expansion; type: cell-based; details: irradiated JeKo-1; TP0903 10-30 nM; day 3
# Description: as §1
# [4] = T cells:targets 1:5, JEKO or primary B cells, 4 hours
smiles,measurement,setting,value
CN1CCN(Cc2ccc(Nc3ncc(Cl)c(Nc4ccccc4S(=O)(=O)N(C)C)n3)cc2)CC1 [TP0903],"T cell specific degranulation or intracellular cytokines (CD107a, GM-CSF)",[1]; CD4 and CD8 cells,did not inhibit
same,"activation of CART19 cells (CD107a degranulation, intracytoplasmic IL-2, IFN-γ, GM-CSF)","[1]; JeKo-1, 4 hours, TP0903 10-65 nM, presence or absence of TP0903",significant activation
same,secretion of IL-4,"[1]; JeKo-1, 4 hours, increasing dose of TP0903 (10-65 nM)",downregulated
same,CART cell functions,[1]; [4],did not impair
same,Th2 cytokines (intracellular staining),[1]; [4],lowered
same,outcome of JeKo re-challenge,"[2]; TP0903 20 mg/kg/day + 0.5×10^6 CART19, re-challenge at three weeks",successfully rejected
same,CART cell persistence in vivo,[2]; TP0903 20 mg/kg/day + CART19,enhanced
same,tumor burden,[2]; combination of CART19 and TP0903 vs CART19 monotherapy,superior low tumor burden
same,circulating CART19,"[2]; combination, after re-challenging Luciferase positive JeKo-1",Expansion
same,MCP-1 (CRS related cytokine),"[2]; in vivo, in the presence of TP0903",Reduction
same,"Th1/Th2 phenotype (CD4, CCR6, CCR4, CXCR3)",[3],major shift toward Th1 phenotype
